Data published in US8481752B2, “Fluorescent imaging with substituted cyanine dyes” (Li-Cor, Inc., priority 2009, dated 2013).

Key:
[1] = Photostability on nitrocellulose under repeated Odyssey scans; type: physicochemical; conditions: for relative fluorescence with additional scans: as GAR conjugates on nitrocellulose, normalized to first scan, 100 scans
Description: The photostability of compound 8 was compared to that of Alexa Fluor 680 and IRDye 700DX. IRDye 700DX is one of the most photostable 700 nm fluorescent dyes known. Test samples were prepared by spotting equimolar amounts of dye-labeled conjugates (i.e., goat anti-rabbit (GAR) secondary antibodies labeled with the appropriate dye) onto nitrocellulose membrane. The membrane was then scanned repeatedly on an Odyssey Infrared Imager, so that the prolonged exposure of the dyes to the laser source induced some photodegradation. The signal intensity for each dye was normalized to the signal in the first scan for that dye (FIG. 9A-B).

[2] = Water solubility of the dye; type: physicochemical

| relative fluorescence with additional scans [1] | resistance to photodegradation ([1]; as GAR conjugate) | water solubility [2] | Compound |
| --- | --- | --- | --- |
| essentially unchanged |  |  | C[Si](C)(CCC[N+](CCCS(=O)(=O)[O-])(CCCS(=O)(=O)[O-])CCCS(=O)(=O)[O-])O[Si]1(O[Si](C)(C)CCC[N+](CCCS(=O)(=O)[O-])(CCCS(=O)(=O)[O-])CCCS(=O)(=O)[O-])n2c3c4ccccc4c2N=C2N=C(N=c4c5ccccc5c(n41)=NC1=NC(=N3)c3ccccc31)c1cccc(OCCCOC(=O)NCCCCCC(=O)ON3C(=O)CCC3=O)c12.[Na+].[Na+].[Na+].[Na+] (stereo not shown) [IRDye 700DX] |
| decreased slightly | good resistance to photodegradation | highly water-soluble | CC1(C)C(/C=C/C(=C/C=C2/N(CCCS(=O)(=O)O)c3ccc4c(S(=O)(=O)[O-])cc(S(=O)(=O)O)cc4c3C2(C)C)c2cccc(CCCCC(=O)O)c2)=[N+](CCCS(=O)(=O)O)c2ccc3c(S(=O)(=O)O)cc(S(=O)(=O)O)cc3c21 [Compound 8, Sodium 2-((1E,3Z,5E)-3-(3-(4-Carboxybutyl)phenyl)-5-(1,1-dimethyl-6,8-disulfonato-3-(3-sulfonatopropyl)-1H-benzo[e]indol-2(3H)-ylidene)penta-1,3-dienyl)-1,1-dimethyl-3-(3-sulfonatopropyl)-1H-benzo[e]indolium-6,8-disulfonate] |
